Measurements taken from ChEMBL document CHEMBL1154703, “Poly-N-methylated amyloid beta-peptide (Abeta) C-terminal fragments reduce Abeta toxicity in vitro and in Drosophila melanogaster” (J Med Chem, 2009).
Calls of active or inactive are those of the source. The calls are words filed in the database; no cut-off is given here. Non-standard residues stand in square brackets, D forms with d. Residues, ends and D or L forms follow the SMILES beside them. Met(O2) = CS(=O)(=O)CC[C@H](N)C(=O)O; NMeI = CC[C@H](C)[C@H](NC)C(=O)O; NMeL = CN[C@@H](CC(C)C)C(=O)O; NMeV = CN[C@H](C(=O)O)C(C)C; Sar = CNCC(=O)O

Key:
[1] = Inhibition of fibril formation of Abeta (1-40) assessed as fibril levels at 1:5 molar ratio of Abeta and ligand after 72 hrs by transmission electron microscopy relative to untreated control; design: scale not given: the % may be the effect or the level left
[2] = Reduction of beta-sheet formation of Abeta (1-40) at 100 uM during 4 to 5 hrs incubation by CD spectroscopy
[3] = Inhibition of fibril formation of Abeta (1-40) assessed as fibril levels at 1:10 molar ratio of Abeta and ligand after 72 hrs by transmission electron microscopy relative to untreated control; design: scale not given: the % may be the effect or the level left
[4] = Reduction of beta-sheet formation of Abeta (1-40) at 1:1 molar ratio of Abeta and ligand during 5 hrs incubation by CD spectroscopy
[5] = Inhibition of Abeta (1-40) assessed as blockade of amyloid-like aggregates at 100 uM by Congo red binding assay
[6] = Reduction of beta-sheet formation of Abeta (1-42) at 100 uM during 3 hrs incubation by CD spectroscopy
PC-12 = test: Cytoprotection against Abeta (1-42)-induced toxicity in rat PC12 cells at 10 uM after 4 hrs by MTT assay; type: functional, cell-based
[7] = Effect on of Abeta (1-40) assessed as structure content at 5 hrs by CD spectroscopy
[8] = Inhibition of Abeta (1-42) assessed as blockade of amyloid-like aggregates at 100 uM by Congo red binding assay
Drosophila melanogaster [9] = test: Effect on life span in wild type Drosophila melanogaster at 300 uM dosed from embryonic stage and throughout adult life; type: functional, organism-based
Drosophila melanogaster [10] = test: Prolongation of life span in transgenic Drosophila melanogaster expressing human Abeta (1-42) at 300 uM dosed from embryonic stage and throughout adult life; type: functional, organism-based
[11] = Effect on of Abeta (1-42) assessed as unordered structure content after 5 hrs by CD spectroscopy
Drosophila melanogaster [12] = test: Improvement in locomotor activity in transgenic Drosophila melanogaster expressing human Abeta (1-42) at 300 uM dosed from embryonic stage and throughout adult life by climbing assay; type: functional, organism-based
[13] = Reduction of beta-sheet formation of Abeta (1-40) at 100 uM during 5 hrs incubation by CD spectroscopy
[14] = Inhibition of fibril formation of Abeta (1-40) assessed as change in fibril morphology at 100 uM by atomic force microscopy relative to untreated control
[15] = Reduction of beta-sheet formation of Abeta (1-42) at 100 uM during 4 hrs incubation by CD spectroscopy
[16] = Inhibition of fibril formation of Abeta (1-40) assessed as fibril levels at 1:1 molar ratio of Abeta and ligand after 72 hrs by transmission electron microscopy relative to untreated control; design: scale not given: the % may be the effect or the level left
[17] = Reduction of beta-sheet formation of Abeta (1-40) at 1:1 molar ratio of Abeta and ligand during 4 hrs incubation by CD spectroscopy
[18] = Effect on of Abeta (1-40) assessed as unordered structure content after 5 hrs by CD spectroscopy
[19] = Inhibition of fibril formation of Abeta (1-40) assessed as change in fibril levels at 100 uM by atomic force microscopy relative to untreated control

Compound | Activity [1] | Activity [2] | Activity [3] | Activity [5] | Activity [6] | Activity (PC-12) | Activity [7] | Activity [8] | other results
CC[C@H](C)[C@@H](C(=O)N(C)CC(=O)N(C)[C@@H](CC(C)C)C(=O)N[C@@H](CCS(C)(=O)=O)C(=O)N(C)[C@H](C(=O)N(C)CC(N)=O)C(C)C)N(C)C(C)=O (Ac-[NMeI][Sar][NMeL][Met(O2)][NMeV][Sar]-NH2) | 50% |  |  |  |  |  |  |  | 
CC(=O)N(C)[C@@H](C)C(=O)N(C)[C@@H](C)C(=O)N(C)[C@@H](C)C(=O)N(C)[C@@H](C)C(=O)N(C)[C@@H](C)C(N)=O | 75% |  |  |  |  |  |  |  | 
CC[C@H](C)[C@@H](C(=O)NCC(=O)N(C)[C@@H](CC(C)C)C(=O)N[C@@H](CCSC)C(=O)N(C)[C@H](C(=O)NCC(N)=O)C(C)C)N(C)C(C)=O (Ac-[NMeI]G[NMeL]M[NMeV]G-NH2) |  | Active | 50% | inactive | Active | Active | 25% | inactive | Activity [4]: inactive
CC[C@H](C)[C@H](NC(C)=O)C(=O)NCC(=O)N[C@@H](CC(C)C)C(=O)N[C@@H](CCSC)C(=O)N[C@H](C(=O)NCC(N)=O)C(C)C (Ac-IGLMVG-NH2) |  | Active | 75% | inactive | Active | inactive | 25% | inactive | 
CC[C@H](C)[C@@H](C(=O)N(C)CC(=O)N(C)[C@@H](CC(C)C)C(=O)N[C@@H](CCSC)C(=O)N(C)[C@H](C(=O)N(C)CC(N)=O)C(C)C)N(C)C(C)=O (Ac-[NMeI][Sar][NMeL]M[NMeV][Sar]-NH2) | 0% |  | 0% | Active |  | Active | 25% | Active | Activity (Drosophila melanogaster [9]): inactive; Activity (Drosophila melanogaster [10]): Active; Activity [11]: > 50%; Activity (Drosophila melanogaster [12]): Active; Activity [13]: Active; Activity [14]: Active; Activity [15]: Active; Activity [16]: 50%; Activity [17]: Active; Activity [18]: 55%; Activity [19]: Active
CC[C@H](C)[C@H](NC(C)=O)C(=O)N(C)CC(=O)N[C@@H](CC(C)C)C(=O)N[C@@H](CCSC)C(=O)N[C@H](C(=O)N(C)CC(N)=O)C(C)C (Ac-I[Sar]LMV[Sar]-NH2) |  | Active | 75% | inactive | Active | Active |  | inactive | 
